Assay results reported in patent US20090028925A1, “Novel Phosphinic Acid-Containing Thyromimetics” (priority 2005, published 2009).

How the values were obtained:
[1] = target: T1, human thyroid hormone receptors TRα1 (Homo sapiens, UniProt P10827); experiment: Receptor binding to TRα1 (gel filtration and scintillation proximity assay, labeled T3); conditions: SPA data; read-out: Ki TRα
T1 construct: made in house; host or cells: Sf9 insect cells (baculovirus)
T1 sequence (P10827 1-410 isoform P10827-2): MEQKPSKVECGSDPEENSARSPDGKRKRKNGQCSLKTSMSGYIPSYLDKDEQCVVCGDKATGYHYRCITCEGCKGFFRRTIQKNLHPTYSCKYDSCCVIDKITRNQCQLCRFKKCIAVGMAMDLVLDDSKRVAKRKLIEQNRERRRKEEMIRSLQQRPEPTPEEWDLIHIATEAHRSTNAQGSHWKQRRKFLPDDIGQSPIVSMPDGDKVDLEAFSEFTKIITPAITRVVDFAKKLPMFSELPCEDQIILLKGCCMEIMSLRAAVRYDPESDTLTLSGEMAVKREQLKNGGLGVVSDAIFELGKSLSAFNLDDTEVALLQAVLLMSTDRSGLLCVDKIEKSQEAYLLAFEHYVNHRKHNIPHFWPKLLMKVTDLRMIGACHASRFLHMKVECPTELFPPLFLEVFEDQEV
T1 sequence (P19793 1-462 partner): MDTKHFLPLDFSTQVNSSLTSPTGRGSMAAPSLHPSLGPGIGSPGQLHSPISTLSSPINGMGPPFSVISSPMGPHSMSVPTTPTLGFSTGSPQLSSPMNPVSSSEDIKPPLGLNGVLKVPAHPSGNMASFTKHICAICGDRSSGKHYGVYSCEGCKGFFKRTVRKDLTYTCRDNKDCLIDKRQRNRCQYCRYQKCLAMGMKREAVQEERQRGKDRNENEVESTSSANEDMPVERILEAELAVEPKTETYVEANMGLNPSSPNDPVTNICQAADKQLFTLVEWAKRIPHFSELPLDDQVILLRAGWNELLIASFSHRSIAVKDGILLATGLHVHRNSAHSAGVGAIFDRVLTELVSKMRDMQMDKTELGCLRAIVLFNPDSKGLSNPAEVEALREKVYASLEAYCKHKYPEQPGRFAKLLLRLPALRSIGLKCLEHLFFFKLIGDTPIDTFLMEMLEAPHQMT

[2] = target: T2, human thyroid hormone receptors TRβ1 (Homo sapiens, UniProt P10828); experiment: Receptor binding to TRβ1 (gel filtration and scintillation proximity assay, labeled T3); conditions: SPA data; read-out: Ki TRβ
T2 construct: made in house; host or cells: Sf9 insect cells (baculovirus)
T2 sequence (P10828 1-461): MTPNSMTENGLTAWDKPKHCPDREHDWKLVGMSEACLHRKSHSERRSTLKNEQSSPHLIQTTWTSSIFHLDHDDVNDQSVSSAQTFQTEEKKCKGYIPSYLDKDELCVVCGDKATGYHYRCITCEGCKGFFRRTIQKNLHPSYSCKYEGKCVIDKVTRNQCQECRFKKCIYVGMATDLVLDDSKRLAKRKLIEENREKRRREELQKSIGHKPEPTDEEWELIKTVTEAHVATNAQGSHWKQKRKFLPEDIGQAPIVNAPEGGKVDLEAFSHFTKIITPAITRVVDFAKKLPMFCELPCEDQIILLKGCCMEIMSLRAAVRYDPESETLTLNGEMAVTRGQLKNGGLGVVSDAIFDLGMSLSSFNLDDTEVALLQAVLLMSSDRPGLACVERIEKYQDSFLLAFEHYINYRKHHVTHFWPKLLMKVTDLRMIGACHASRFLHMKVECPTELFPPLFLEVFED
T2 sequence (P19793 1-462 partner): T1 sequence (P19793 1-462 partner)

[3] = Prodrug activation in rat liver microsomes; format: in vitro ADME
Excerpt: (§1) The purpose of these studies was to determine the kinetics of activation of prodrugs of thyromimetics in microsomal preparations. Microsomes contain the P450 enzyme that is required for the activation of many of the prodrugs prepared. The Km, Vmax, and intrinsic clearance values determined are measures of prodrug affinity for the microsomal enzymes, the rate at which the prodrug is activated, and the catalytic efficiency with which the prodrug is activated, respectively.
(§2) Methods: Activation of prodrugs by dexamethasone treated rat hepatocyte microsomes. Microsomes were isolated by standard differential centrifugation methods from dexamethasone-treated rats. The treatment is to increase cytochrome P450-3A (CYP3A4) activity. Induction of CYP3A4 was confirmed by an increase in testosterone hydroxylation.
(§3) Various concentrations of HepDirect™ Compound 7 were incubated with rat hepatocytes microsomes. Compound 7 formation was analyzed by HPLC using UV-Vis detection. Kinetic parameters (Vmax and Km) were calculated from the transformed data and the intrinsic clearance calculated from the kinetic parameters.

[4] = test system: CYP3A (cytochrome P450-3A (CYP3A4)); experiment: Prodrug activation in rat liver microsomes; format: in vitro ADME; conditions: liver microsomes from dexamethasone-treated rats; dexamethasone treated rat microsomes, formation of Compound 7
Excerpt: as §1, §2, §3

serum cholesterol = experiment: Subacute study in cholesterol fed rats, PO: serum cholesterol; format: in vivo; conditions: PO once a day for seven days
Method: (§4) Methods: […] Compound 13-1-cis and Compound 18 were administered PO once a day for seven days. Serum TSH is measured using an enzyme immunoassay (EIA) kit designed for rat TSH (Amersham Pharmacia Biotech, Arlington Heights, Ill.). Expression levels of liver genes (e.g., the LDL-receptor, apoB, cpt-1, spot14 and apoAI) and heart genes ([…]2, HCN2, Kv1.5, MHCα, MHCβ, Alpha1c) are quantified by Northern blot analysis or by RT-PCR. For Northern analyses, RNA is isolated from liver tissue by a guanidinium thiocyanate method, and total RNA is obtained using an RNeasy column (Quiagen). mRNA is separated on a 1% agarose gel and transferred to a nylon membrane. Oligonucleotides specific for the complementary gene sequences are used to make ^32P-labeled probes (Multiprime DNA labeling systems, Amersham Pharmacia Biotech). Following hybridization of the probes to the nylon membranes, radioactivity is assessed on a blue film (Eastman Kodak Co), and the resulting image quantified using the appropriate software. RT-PCR is performed using an iCycler instrument (Biorad) using appropriate primers by means of standard methodology [[…] et al. (2000) Life Sciences 66: 1683-94]. GPDH activity in liver and heart are measured as described in Example B. […] Alternatively, expression levels of the corresponding genes are determined by Northern blot analysis or RT-PCR as described above.

[5] = Subacute study in cholesterol fed rats, PO: heart weight; format: in vivo; conditions: PO seven days, any dose tested
Method: as §4

plasma cholesterol = experiment: Cholesterol lowering in hypercholesterolemic rats; format: in vivo; conditions: hypercholesterolemic rats, 0.5 mg/kg/d orally
[6] = ZDF, rat, in vivo, po, 28 days
Method: Compound 18 was administered at doses up to 5 mg/kg/d. Compound cis-13-1 was administered at doses up to 50 mg/kg/d. We reasoned that the ZDF rat, as a metabolically challenged animal model, would be more sensitive to the potential adverse cardiac effects of thyromimetics than a normal, cholesterol-fed rat. At sacrifice, heart rate, and the first derivative of left ventricular pressure (LV dP/dt) were measured with a Millar catheter inserted into the left ventricle.

[7] = test system: thyroid stimulating hormone (TSH); experiment: Circulating TSH in rats (cholesterol-fed, ZDF); format: in vivo
Method: Methods: mGPDH activity was analyzed in isolated mitochondria using 2-(4-iodophenyl)-3-(4-nitrophenyl)-5-phenyl tetrazolium chloride as the terminal electron acceptor (Gardner R S, Analytical Biochemistry 59:272 (1974)). Commercially available GPDH was used in each assay as a standard (Sigma, St. Louis, Mo.). Changes in levels of mRNA for liver and heart genes are analyzed using reverse transcriptase followed by real-time PCR analysis. The analysis is performed using an iCycler instrument (Biorad) and appropriate primers by means of standard methodology [e.g., Schwab D A et al. (2000) Life Sciences 66: 1683-94]. The amounts of mRNA are normalized to an internal control, typically, cyclophilin. Serum TSH is measured using an enzyme immunoassay (EIA) kit designed for rat TSH (Amersham Pharmacia Biotech, Arlington Heights, Ill.).
Another concern with synthetic thyromimetics is the suppression of the endogenous thyroid axis. Thyroid homeostasis is maintained by the action of thyroid releasing hormone (TRH) and thyroid stimulating hormone (TSH). […] Although this particular side effect has been noted, it has typically been treated with less concern than the cardiac safety issues. […] Therefore previous investigators have measured TSH levels when testing synthetic thyromimetics and have used a 30% decrease of TSH as the denominator in their therapeutic index calculations. […] Therefore, both compounds suppress TSH as doses lower than that required to decrease circulating cholesterol. […] However, 0.2 mg/kg/d of Compound 18 in 28 day treated ZDF rats, decreased TSH levels greater than 90%.

[8] = Cardiovascular activity in the Sprague Dawley rat (HR, LV dP/dt, aortic pressure, heart weight); format: in vivo; conditions: SD rats, 1 mg/kg p.o., 7 days
Excerpt: Method: […] The control group (n=6) was given vehicle only. […] On the 7th day after the start of dosing, animals were anesthetized with Isofluorane and the left ventricle cannulated with a high fidelity catheter tip transducer via the right carotid artery. Left ventricular pressure, its first derivative (LVdP/dt), lead I ECG, and heart rate (HR) triggered off the ECG waveform, were digitally recorded. LV dP/dt is a well accepted measure of ionotropic state. Systolic and diastolic aortic pressures were measured by retracting the catheter into the proximal aorta.

[9] = cholesterol-fed rat; cited from earlier work

SMILES	Ki [1] [nM]	Ki [2] [nM]	Vmax ([3]; dexamethasone treated rat microsomes, formation of Compound 7) [pmol/min/mg]	microsomal CLint ([3]; rat, liver microsomes from dexamethasone-treated rats, intrinsic clearance calculated from the kinetic parameters) [µL/min/mg]	Km [4] [µM]	doses that significantly decreased serum cholesterol (serum cholesterol) [mg/kg/day]	cardiac hypertrophy [5]	cholesterol lowering (plasma cholesterol)	TI for LV dP/dt (increase of 25%) [6]	therapeutic index with respect to heart rate (ED15 HR/ED50 cholesterol) [6]	decrease of TSH levels ([7]; ZDF rats, 0.2 mg/kg/d, 28 day)	therapeutic index of TSH levels (30% decrease of TSH) ([7]; cholesterol-fed rats, treated for 7 days)	HR, LV dP/dt, and systolic aortic pressure [8]	Heart weight and heart weight normalized to body weight [8]	therapeutic index (TI) with respect to heart rate increases (ED15 HR/ED50 cholesterol) [9]
Cc1cc(OC[P@@]2(=O)OCC[C@@H](c3cccc(Cl)c3)O2)cc(C)c1Cc1ccc(O)c(C(C)C)c1 [Compound 13-1-cis, Cis(S)-2-[(3,5-Dimethyl-4-(4′-hydroxy-3′-iso-propylbenzyl)phenoxy)methyl]-4-(3-Chlorophenyl)-2-oxo-2λ^5-[1,3,2]-dioxaphosphinane]	2580	1980	1746	56	31	0.6 to 50	No significant undesirable cardiac hypertrophy was observed	demonstrated a significant lowering of cholesterol							
CC(C)c1cc(Oc2c(Cl)cc(CC(=O)O)cc2Cl)ccc1O [Compound 18, 3,5-dichloro-4-[4′-hydroxy-3′-iso-propylphenoxy]benzeneacetic acid, reference compound]						1			0.15	0.4	greater than 90%	0.4	marked and statistically significant increases	significantly increased	40
